Patent EP0873990A1, “BENZOIC ACID COMPOUNDS AND MEDICINAL USE THEREOF” (YOSHITOMI PHARMACEUTICAL INDUSTRIES, LTD., priority 1995, dated 1997)

Columns and labels:
5-HT4 receptor = molecular target: T1, 5-HT4 receptor (Cavia porcellus, UniProt O70528); test: biochemical; assay type: binding, guinea pig; settings: [3H]GR113808 0.1 nM, guinea pig striatum membranes, 37°C, 30 min; IC50 converted to Ki; read-out: Affinity for receptor (Ki value, nM) 5-HT4
T1 construct: crude synapse membrane sample was prepared from guinea pig striatum; from tissue; host or cells: guinea pig striatum, crude synaptic membranes
Procedure: Specifically, crude synapse membrane sample was prepared from guinea pig striatum, suspended in 50 mM HEPES buffer (pH 7.4) and used for testing. The test compound having several different concentrations and [3H]GR113808 (final concentration 0.1 nM) were added to this suspension and allowed to react at 37°C. Thirty minutes later, the reaction mixture was filtered by suction with cell harvester. The filter was washed with 50 mM HEPES buffer, and the radioactivity on the filter was counted by liquid scintillation counter. The non-specific binding was determined in the presence of 1 µM GR113808. The concentration of the test compound necessary for 50% inhibition (IC50) was determined from a graph and converted to a Ki value.

5-HT3 receptor = molecular target: T2, 5-HT3 receptor (Rattus norvegicus, UniProt P35563); test: 5-HT3 receptor binding test ([3H]Granisetron, crude synapse membrane from cerebral cortex); settings: values marked * are IC50; [3H]Granisetron 1.0 nM, rat cerebral cortex membranes, 25°C, 30 min; read-out: Affinity for receptor 5-HT3 (∗ shows IC50)
T2 construct: crude synapse membrane sample was prepared from rat cerebral cortex; from tissue; host or cells: rat cerebral cortex, crude synaptic membranes
T2 sequence (P35563 24-483): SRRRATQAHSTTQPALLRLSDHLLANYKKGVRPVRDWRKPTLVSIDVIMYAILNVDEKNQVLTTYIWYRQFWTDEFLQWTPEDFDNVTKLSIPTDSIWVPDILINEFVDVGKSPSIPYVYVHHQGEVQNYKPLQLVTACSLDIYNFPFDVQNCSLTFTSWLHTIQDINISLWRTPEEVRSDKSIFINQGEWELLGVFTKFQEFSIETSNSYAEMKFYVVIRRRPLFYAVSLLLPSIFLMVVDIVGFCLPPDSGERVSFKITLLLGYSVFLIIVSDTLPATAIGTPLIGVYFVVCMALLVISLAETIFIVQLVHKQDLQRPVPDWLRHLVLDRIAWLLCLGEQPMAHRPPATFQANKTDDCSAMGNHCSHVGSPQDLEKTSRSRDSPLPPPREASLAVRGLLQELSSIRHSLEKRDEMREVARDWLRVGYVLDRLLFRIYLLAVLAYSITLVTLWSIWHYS
Procedure: 148, pp. 297-299 (1988)], a specific 5-HT3 receptor binding test was run using, as a tracer ligand, endo-1-methyl-N-(9-methyl-9-azabicyclo[3.3.1]non-3-yl)-1H-indazole-3-carboxamide substituted by tritium (hereinafter to be referred to as [3H]Granisetron). Specifically, crude synapse membrane sample was prepared from rat cerebral cortex, suspended in 50 mM HEPES buffer (pH 7.4) and used for testing. The test compound having several different concentrations and [3H]Granisetron (final concentration 1.0 nM) were added to this suspension and allowed to react at 25°C. Thirty minutes later, the reaction mixture was filtered by suction with cell harvester. The filter was washed with 50 mM Tris buffer (pH 7.4), and the radioactivity on the filter was counted using liquid scintillation counter or β-plate. The non-specific binding was determined in the presence of 1 µM Tropisetron. The concentration of the test compound necessary for 50% inhibition (IC50) was determined from a graph and converted to a Ki value.

Male ddY mice = test: Stimulation of defecation in mouse; assay type: in vivo; settings: for promotion (%) of number / promotion (%) of wet weight: 2 hours, versus vehicle; for number (of feces) / wet weight (mg) (of feces): feces excreted for 2 hours after oral administration, n=20
Procedure: Male ddY mice were placed in partition box, and the number and wet weight of feces excreted for 2 hours from immediately after oral administration of the compound of Example 57 were measured.

Male Hartley guinea pigs = test: Promotion of colonic transit in guinea pig; assay type: in vivo; settings: for ratio of colonic transit (%): colon removed one hour later; for promotion (%) of colonic transit: versus vehicle
Procedure: Male Hartley guinea pigs were subjected to laparotomy under ether anesthesia, and a polyethylene tube was inserted into the beginning of colon. The other end was passed under the skin to be exposed from the neck and fixed there. At day 5 postoperation, Evans blue solution was injected into the colon through the polyethylene tube. One hour later, the colon was removed, and the range of the Evans blue solution was measured, which was calculated relative to the entire length of the colon and expressed as transit ratio. The compound of Example 57 was orally administered one hour before injection of the Evans blue solution.

male Wistar rats = test: Promotion of gastric emptying in rats; assay type: in vivo, rat; settings: for number of pellets (remaining in stomach): stomach removed one hour later; for promotion (%) of gastric emptying: from comparison with remaining pellets in vehicle group
Procedure: Barium pellets (ca. 1 mm diameter) coated with polystyrene was intragastrically administered to male Wistar rats. One hour later, stomach was removed, and the remaining pellets were counted. The compound of Example 57 was orally administered one hour before administration of the pellets. The promotion ratio was calculated from the comparison with the number of remaining pellets in the group administered with vehicle.

T1 sequence (O70528 whole entry): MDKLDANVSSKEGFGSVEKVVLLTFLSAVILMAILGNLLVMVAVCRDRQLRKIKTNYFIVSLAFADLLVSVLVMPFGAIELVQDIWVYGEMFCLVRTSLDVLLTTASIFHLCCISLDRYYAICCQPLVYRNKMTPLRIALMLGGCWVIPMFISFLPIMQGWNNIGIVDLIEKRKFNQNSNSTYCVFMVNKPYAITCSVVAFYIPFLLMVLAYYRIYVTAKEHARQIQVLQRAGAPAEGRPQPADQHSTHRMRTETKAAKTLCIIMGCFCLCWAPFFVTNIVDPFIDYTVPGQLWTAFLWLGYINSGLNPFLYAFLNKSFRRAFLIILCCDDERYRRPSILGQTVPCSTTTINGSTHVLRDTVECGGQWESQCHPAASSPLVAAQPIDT

COc1cc(N)c(Cl)cc1C(=O)NCC1CCN(CCCCCC(=O)c2ccccc2)CC1 [Example 57, 4-amino-5-chloro-2-methoxy-N-((1-(6-oxo-6-phenylhexyl)piperidin-4-yl)methyl)benzamide]
Ki (5-HT4 receptor): 2.4 nM
IC50 (5-HT3 receptor): > 1000 nM
promotion (%) of number (Male ddY mice; 0.1 mg/kg p.o.): 70%
promotion (%) of wet weight (Male ddY mice; 0.1 mg/kg p.o.): 69%
number (of feces) (Male ddY mice; 0.1 mg/kg p.o.): 3.4±0.3
wet weight (mg) (of feces) (Male ddY mice; 0.1 mg/kg p.o.): 59.2 ± 6.5 mg
promotion (%) of number (Male ddY mice; 0.3 mg/kg p.o.): 135%
promotion (%) of wet weight (Male ddY mice; 0.3 mg/kg p.o.): 136%
number (of feces) (Male ddY mice; 0.3 mg/kg p.o., P<0.01): 4.7±0.5
wet weight (mg) (of feces) (Male ddY mice; 0.3 mg/kg p.o., P<0.01): 82.7 ± 11.5 mg
promotion (%) of number (Male ddY mice; 1 mg/kg p.o.): 130%
promotion (%) of wet weight (Male ddY mice; 1 mg/kg p.o.): 120%
number (of feces) (Male ddY mice; 1 mg/kg p.o., P<0.01): 4.6±0.6
wet weight (mg) (of feces) (Male ddY mice; 1 mg/kg p.o., P<0.01): 77.2 ± 11.9 mg
promotion (%) of number (Male ddY mice; 3 mg/kg p.o.): 135%
promotion (%) of wet weight (Male ddY mice; 3 mg/kg p.o.): 132%
number (of feces) (Male ddY mice; 3 mg/kg p.o., P<0.01): 4.7±0.5
wet weight (mg) (of feces) (Male ddY mice; 3 mg/kg p.o., P<0.01): 81.6 ± 10.4 mg
ratio of colonic transit (%) (Male Hartley guinea pigs; 0.1 mg/kg p.o. one hour before Evans blue injection, n=16): 54.5±8.0%
promotion (%) of colonic transit (Male Hartley guinea pigs; 0.1 mg/kg p.o.): 23%
ratio of colonic transit (%) (Male Hartley guinea pigs; 0.3 mg/kg p.o. one hour before Evans blue injection, n=16): 54.7±5.9%
promotion (%) of colonic transit (Male Hartley guinea pigs; 0.3 mg/kg p.o.): 24%
ratio of colonic transit (%) (Male Hartley guinea pigs; 1 mg/kg p.o. one hour before Evans blue injection, n=15, P<0.05): 71.8±6.9 %
promotion (%) of colonic transit (Male Hartley guinea pigs; 1 mg/kg p.o.): 62%
ratio of colonic transit (%) (Male Hartley guinea pigs; 3 mg/kg p.o. one hour before Evans blue injection, n=14, P<0.05): 73.2±6.3 %
promotion (%) of colonic transit (Male Hartley guinea pigs; 3 mg/kg p.o.): 66%
number of pellets (remaining in stomach) (male Wistar rats; 0.3 mg/kg p.o. one hour before barium pellets): 28.2 ±1.3
promotion (%) of gastric emptying (male Wistar rats; 0.3 mg/kg p.o.): 0%
number of pellets (remaining in stomach) (male Wistar rats; 1 mg/kg p.o. one hour before barium pellets): 24.3 ±2.5
promotion (%) of gastric emptying (male Wistar rats; 1 mg/kg p.o.): 14%
number of pellets (remaining in stomach) (male Wistar rats; 3 mg/kg p.o. one hour before barium pellets, P<0.05): 19.0 ±2.6
promotion (%) of gastric emptying (male Wistar rats; 3 mg/kg p.o.): 32%
number of pellets (remaining in stomach) (male Wistar rats; 10 mg/kg p.o. one hour before barium pellets, P<0.01): 13.3 ±3.0
promotion (%) of gastric emptying (male Wistar rats; 10 mg/kg p.o.): 53%
